# Test results published in patent US20240287136A1, “PHARMACEUTICAL COMPOSITION AND THE USE THEREOF IN THE TREATMENT OF AUTOIMMUNE DISEASES” (Singapore Health Services Pte. Ltd., priority 2016, published 2024).
# Ends that are not written are not given here.
# Tests used:
# PBMCs = experiment: TaqMan gene expression of regulatory molecules in PBMCs incubated in vitro with SEQ ID NO. 1; assay type: cell-based, human; conditions: T0 PBMCs incubated with 10 mg/ml SEQ ID NO. 1 for 48 hours
# Description: PBMCs from T0 were incubated in vitro with 10 mg/ml SEQ ID NO. 1 for 48 hours, and TaqMan was performed as described earlier. Data are expressed as 2(−dCT)×100 of GAPDH. PD-1, 0.3595+/−0.1033 vs 0.9310+/−0.1961, n=S, p0.0327 PD-L1, 0.1400+/−0.05308 vs 1.080+/−0.1926, n=6, p0.0005 CTLA-4, 0.2667+/−0.07313 vs 4.809+/−2.606, n=6, p0.0588 Foxp3, 0.2678+/−0.1267 vs 2.329+/−0.9527, n=6, p0.0422 P values were obtained by t-test.
# [1] = system: CD4+FoxP3+Tregs and CD4+CD45RO+memory T cells; experiment: Cluster analysis and manual gating of Treg and memory T cell compartments of trial patients; assay type: in vivo, human
# Text: Cluster analysis of the immune profiles of healthy individuals and rheumatoid arthritis patients reveal profound perturbations in the various immune cell compartments (FIG. 8). Immune tolerization achieved with SEQ ID NO: 1 treatment reshapes the immunomes of rheumatoid patients (FIG. 8B). The underlying immunological mechanisms behind immune tolerization was investigated by utilising staining panels for surface and activation markers on T cells (FIG. 13).
# Immune phenotypes enriched in this cell subset of SEQ ID NO: 1 responders were memory T cells displaying activation and tolerogenic characteristics (FIG. 11B).
# [2] = system: peripheral blood mononuclear cells (PBMCs); experiment: Immune deviation in PBMCs of trial patients (cytokine production, PD-1 expression); assay type: in vivo, human; conditions: for production of interleukin 10 (IL-10) / production of tumor necrosis factor α (TNFα): PBMCs / T cell subset of treated patients; for expression of Programmed Death 1 (PD-1) in PBMC: clinical responders, data not shown
# Description: The model employed here is based on the hypothesis that immune tolerization to a T-cell epitope, such as SEQ ID NO. 1 that may be a contributor of inflammation in patients with rheumatoid arthritis, may lead to detectable clinical improvement. A total of 96 patients with early rheumatoid arthritis, who were not allowed on Methotrexate or biologics, were tested with mucosal tolerization to SEQ ID NO. 1. Patients are defined as “responders” if they meet the response criteria at any time during the study. […] SEQ ID NO.
# 1 (herein dubbed clinical responders) was observed (data not shown). PD-1 was first described as a contributor to T-cell anergy and exhaustion in chronic viral infections and cancer.
# It is established that SEQ ID NO: 1 treatment was associated with an immune deviation in the T cell subset characterized by a decrease and an increase in tumor necrosis factor α (TNFα) and IL-10, respectively.
# [3] = system: latent TGFβ binding protein 4 (LTBP-4) gene; experiment: Gene array analysis of PBMCs of trial patients; assay type: in vivo, human; conditions: SEQ ID NO: 1 responders (FIG. 14A)
# [4] = system: patients with early rheumatoid arthritis; experiment: Phase II trial of mucosal tolerization to SEQ ID NO. 1: clinical outcome; assay type: in vivo, human
# Description: The model employed here is based on the hypothesis that immune tolerization to a T-cell epitope, such as SEQ ID NO. 1 that may be a contributor of inflammation in patients with rheumatoid arthritis, may lead to detectable clinical improvement. A total of 96 patients with early rheumatoid arthritis, who were not allowed on Methotrexate or biologics, were tested with mucosal tolerization to SEQ ID NO. 1. Patients are defined as “responders” if they meet the response criteria at any time during the study. […] SEQ ID NO. […]
# [5] = system: Treg (CD4+CD25++CD127−) cells; experiment: PD-1 expression on Treg by FACS after incubation with SEQ ID NO. 1; assay type: cell-based, human; conditions: after incubation with 10 mg/ml of SEQ ID NO. 1
# Description: FIG. 5. PD-1 actively contributes to Treg function: a. Treg ability to suppress Teff proliferation was determined by CFSE dilution. A representative clinical responder is depicted. Treg cells were sorted by FACS according to the phenotype depicted in the table and incubated with Teff in the presence of 10 mg/ml of SEQ ID NO. 1. b. […] 1. c. […] 1. Line with white area under the curve depicts T0, grey area depicts Tend. T(x)=Probability binning. % PD-1+Treg is expressed as percentage of the total Treg population (insets in both panels). d. […] PD-1+Treg cells were stained by FACS after a 5-day incubation with Teff and APC in the presence or absence of anti-PD1 antibody. Details in methods. Line with white area under the curve depicts anti-PD1 treated, grey area depicts untreated. T(x)=Probability binning. e. pSTAT5 was examined in Treg via immunofluorescent microscopy. Cells, staining and slides were prepared according to procedures outlined in the methods. The average pSTAT5 expression per cell for anti-PD-1 treatment, as determined by the average integral density per unit area, was calculated using ImageJ (Rasband, W. S., ImageJ, http://rsb.info.nih.gov/ij/, 1997-2009). Untreated vs. anti-PD-1 treated: 38.79 vs. 33.07, standard deviation 4.27 vs. […], t-test p<0.0001. f. […] Teff were stained by FACS after a 5-day incubation in the presence or absence of anti-PD1 antibody. Details in methods. Line with white area under the curve depicts anti-PD1 treated, grey area depicts untreated. T(x)=Probability binning. g. Total Treg, PD-1+Treg and PD-1− Treg from clinical responders (n=S) at Tend were sorted and RNA expression of CTLA-4, FoxP3, IL-10 and TGF-β was measured by TaqMan. Data are expressed as 2(−dCT)×100 of GAPDH. […] 1 clinical responders (18.99+/−3.412 vs 2.693+/−1.434, n=S p=0.0130).
# [6] = placebo clinical non-responders
substance,measurement,setting,value
QKRAAYDQYGHAAFE-NH2 [SEQ ID NO. 1],CTLA-4 gene expression in PBMCs,PBMCs; clinical responders,4.809+/−2.606 2(−dCT)×100 of GAPDH
same,Foxp3 gene expression in PBMCs,PBMCs; clinical responders,2.329+/−0.9527 2(−dCT)×100 of GAPDH
same,PD-1 gene expression in PBMCs,PBMCs; clinical responders,0.9310+/−0.1961 2(−dCT)×100 of GAPDH
same,PD-L1 gene expression in PBMCs,PBMCs; clinical responders,1.080+/−0.1926 2(−dCT)×100 of GAPDH
same,CTLA-4 gene expression in PBMCs,PBMCs; [6],0.2667+/−0.07313 2(−dCT)×100 of GAPDH
same,Foxp3 gene expression in PBMCs,PBMCs; [6],0.2678+/−0.1267 2(−dCT)×100 of GAPDH
same,PD-1 gene expression in PBMCs,PBMCs; [6],0.3595+/−0.1033 2(−dCT)×100 of GAPDH
same,PD-L1 gene expression in PBMCs,PBMCs; [6],0.1400+/−0.05308 2(−dCT)×100 of GAPDH
same,"percentage of CD4+FoxP3+Tregs expressing GITR, PD-1 and HLA-DR",[1]; SEQ ID NO: 1 responders versus placebo non-responders (FIG. 8E),higher percentage
same,proportion of CD4+CD45RO+memory T cells activated and regulatory (CD69 and TGFβ expression),[1]; SEQ ID NO: 1 responders versus placebo non-responders (FIG. 11C),larger proportion
same,production of interleukin 10 (IL-10),[2],increased production
same,production of tumor necrosis factor α (TNFα),[2],decreased production
same,production of interleukin 10 (IL-10),[2]; listed as SEQ ID NO: 1,increase
same,production of tumor necrosis factor α (TNFα),[2]; listed as SEQ ID NO: 1,decrease
same,expression of Programmed Death 1 (PD-1) in PBMC,[2],significantly higher expression
same,expression of Programmed Death 1 (PD-1) in PBMC,[2]; listed as SEQ ID NO: 1,significantly higher levels
same,expression of latent TGFβ binding protein 4 (LTBP-4) gene in PBMCs,[3],marginal upregulation
same,safety of mucosal tolerization,[4]; 96 patients with early rheumatoid arthritis,safe
same,clinical efficacy,"[4]; 96 patients with early rheumatoid arthritis, no Methotrexate or biologics",comparable to the use of Methotrexate alone
same,joint pain,[4]; after treatment withdrawal (FIG. 11E),Sustained improvements
same,joint swelling,[4]; after treatment withdrawal (FIG. 11F),Sustained improvements
same,Physician global assessment scores,"[4]; one month after clinical withdrawal, versus placebo (FIG. 11D)",performed better than placebo
same,PD-1+ Treg as percentage of total Treg,"[5]; clinical responder, T0",13.3%
same,PD-1+ Treg as percentage of total Treg,"[5]; clinical responder, Tend",41%
same,PD-1+ Treg as percentage of total Treg,"[5]; representative clinical non-responder, T0",15.5%
same,PD-1+ Treg as percentage of total Treg,"[5]; representative clinical non-responder, Tend",12.7%
